# Experimental data as given in patent publication US20240117005A1, “NOVEL BICYCLIC PEPTIDES” (THE COUNCIL OF THE QUEENSLAND INSTITUTE OF MEDICAL RESEARCH, priority 2021, published 2024).
# No end group written: not given here. *: point of attachment. Myristyl = CCCCCCCCCCCCCC*
# Experiments:
# MDA-MB-231-Br cells = assay: WST-1 cell proliferation assay, MDA-MB-231-Br; assay type: cell-based, human
# MCF-7 cells = assay: RNA-seq differential expression, DL-2 vs. Stimulated; assay type: cell-based, human; details: MCF-7, DL-2 vs. Stimulated (PMA)
# Source text: RNA-sequencing (RNA seq) data were obtained from human breast cancer cell line MCF-7 with and without DL-2 treatment. A total of 9 samples from […] experimental groups were collected, as follows: • Control (non-stimulated control, Ctrl) (n=3); • Stimulated (PMA stimulated control) (n=3); • DL-2 (treated with DL-2 and stimulated with PMA) (n=3); For the DL-2 treatment group, the MCF-7 cells were exposed to DL-2 first, then stimulated with PMA thereafter. RNA-seq data were generated, fastq data were downloaded to the QIMR Berghofer server, and then archived to the HSM by Scott Wood. Sequence reads were trimmed for adapter sequences using Cutadapt (version 1.9; Martin (2011)) and aligned using STAR (version 2.5.2a; Dobin et al. (2013)) to the GRCh37 assembly with the gene, transcript, and exon features of Ensembl (release 70) gene model. Quality control metrics were computed using RNA-SeQC (version 1.1.8; DeLuca et al. (2012)) and expression was estimated using RSEM (version 1.2.30; Li and Dewey (2011)). In our analysis, we corrected for library size by dividing each sample's gene count by million reads mapped. This procedure is a common approach known as counts per million (CPM). We further corrected for differences in RNA composition using a method proposed by Robinson and Oshlack (2010a) called trimmed mean of M values (TMM). We used the function calcNormFactors( ) from the edgeR package (Robinson, McCarthy, and Smyth (2010b)) to obtain TMM factors and used these to correct for differences in RNA composition. Differential expression (DE) analysis was performed using the R package edgeR (Robinson, McCarthy, and Smyth (2010b)). Note that the inputs for DE analysis are the filtered but not normalised read counts, since edgeR performs normalisation (library size and RNA composition) internally. The […]( ) function was used to fit a quasi-likelihood negative binomial generalised log-linear model to the read counts for each gene. Using the […]( ) function, we conducted gene-wise empirical Bayes quasi-likelihood F-tests for a given contrast. As per the edgeR user's guide, “the quasi-likelihood method is highly recommended for differential expression analyses of bulk RNA-seq data [versus the likelihood ratio test] as it gives stricter error rate control by accounting for the uncertainty in dispersion estimation”.
# [1] = test system: 4T1 TNBC metastatic cancer cells; assay: 4T1 model of metastatic breast cancer in mice; assay type: in vivo, mouse
# Description: 4T1 Gold standard immunotherapy resistant mouse model mice obtained from the ARC, Perth and mice were inoculated with 4T1 TNBC metastatic cancer cells. DL-2 is supplied lyophilised in glass vials and was reconstituted using sodium chloride injection BP (0.9% saline) to make a stock solution of 10 mg/mL using a needle/syringe, DL-2 was mixed by inversion. Animals were then injected by intraperitoneal injection at 10, 20 or 30 mg/kg daily and rested over the weekend. Mice were monitored over time for body weight and tumour volume.
# 4T1 Gold standard immunotherapy resistant mouse model mice obtained from the ARC, Perth and mice were inoculated with 4T1 TNBC metastatic cancer cells. DL-2 or DL-2-D is supplied lyophilised in glass vials was reconstituted using sodium chloride injection BP (0.9% saline) to make a stock solution of 10 mg/mL using a needle/syringe, DL-2 was mixed by inversion. Animals were then injected by intraperitoneal injection and mice were monitored over time for body weight and tumour volume for DL-2 at 20 mg/kg every second day with resting over the weekend in conjunction with αPD1 or isotype control (10 mg/kg).
# DL-2-D was mixed by inversion. Animals were then injected by intraperitoneal injection and mice were monitored over time for body weight and tumour volume for DL-2-D at a concentration of 20 mg/kg every two days (identical regime to αPD1) in conjunction with αPD1 or isotype control (10 mg/kg).
# CSC = CSC inhibition (Table 10 summary); assay type: cell-based; details: linear peptide derivatives; change stated relative to prototype PDL1-L1
compound,measurement,setting,value
CCCCCCCCCCCCCC(=O)NC(C)C(=O)NC1CSCc2cc3cc(c2)CSC[C@H](NC(=O)[C@H](Cc2ccccc2)NC(=O)[C@H](C(C)CC)NC(=O)[C@H](Cc2ccccc2)NC(=O)[C@H]([C@@H](C)O)NC(=O)C(CC(C)C)NC1=O)C(=O)N[C@@H](CCCNC(C)=N)C(=O)N[C@@H](CC(C)C)C(=O)N[C@@H](CCCNC(=N)N)C(=O)N[C@@H](CCCCN)C(=O)NCC(=O)N[C@@H](CCCNC(=N)N)C(=O)NC(C(=O)N[C@@H](CCSC)C(=O)NC(CCSC)C(=O)N[C@@H](CC(=O)O)C(=O)NC(C(=O)N[C@@H](CCCCN)C(=O)NC(CCCCN)C(=O)O)C(C)C)CSC3 (mixture of isomers) [DL-2],inhibition of proliferation,MDA-MB-231-Br cells; WST-1,able to inhibit proliferation
same,potency of proliferation inhibition relative to DL-1,MDA-MB-231-Br cells; higher potency than DL-1,2-3 fold
same,logFC A2M,MCF-7 cells,1.461
same,logFC AKR1C1,MCF-7 cells,−1.324
same,logFC ALDH1A3,MCF-7 cells,−0.9248
same,logFC ATP6V0B,MCF-7 cells,0.647
same,logFC B3GAT3,MCF-7 cells,0.8186
same,logFC BSCL2,MCF-7 cells,0.9849
same,logFC C19orf10,MCF-7 cells,0.7917
same,logFC CAMSAP2,MCF-7 cells,−0.7468
same,logFC CD99,MCF-7 cells,0.6829
same,logFC CDKN2B,MCF-7 cells,−0.5982
same,logFC CHPF,MCF-7 cells,0.6073
same,logFC CTNNAL1,MCF-7 cells,−0.5943
same,logFC CTSD,MCF-7 cells,1.079
same,logFC CXCL12,MCF-7 cells,1.155
same,logFC ELF1,MCF-7 cells,−0.7207
same,logFC ENTPD1,MCF-7 cells,0.8956
same,logFC ETV3,MCF-7 cells,−0.6424
same,logFC FILIP1L,MCF-7 cells,−0.7563
same,logFC FOXN3,MCF-7 cells,−0.75
same,logFC IFIT2,MCF-7 cells,−1.213
same,logFC IGFBP2,MCF-7 cells,0.7385
same,logFC IGFBP4,MCF-7 cells,0.6164
same,logFC INPP4B,MCF-7 cells,−0.6381
same,logFC KIAA1324,MCF-7 cells,0.6324
same,logFC KLHL5,MCF-7 cells,−1.028
same,logFC MANF,MCF-7 cells,0.8172
same,logFC MMP9,MCF-7 cells,−1.43
same,logFC MOB1A,MCF-7 cells,−0.6723
same,logFC MUC1,MCF-7 cells,0.9921
same,logFC NEDD9,MCF-7 cells,−0.7516
same,logFC NEU1,MCF-7 cells,0.6165
same,logFC PPIB,MCF-7 cells,0.8358
same,logFC PRDX4,MCF-7 cells,0.6511
same,logFC QKI,MCF-7 cells,−0.8595
same,logFC RAI14,MCF-7 cells,−0.8091
same,logFC SERPINA3,MCF-7 cells,1.008
same,logFC SGCG,MCF-7 cells,1.126
same,logFC SIRT1,MCF-7 cells,−0.7444
same,logFC SLC7A11,MCF-7 cells,−0.8545
same,logFC STC1,MCF-7 cells,0.7265
same,logFC TACC1,MCF-7 cells,−0.6077
same,logFC TAPBP,MCF-7 cells,0.5968
same,logFC TBC1D5,MCF-7 cells,−0.897
same,logFC TCN1,MCF-7 cells,2.029
same,logFC TFF1,MCF-7 cells,1.253
same,logFC TMED3,MCF-7 cells,0.6673
same,logFC TXNRD1,MCF-7 cells,−0.7667
same,logFC ZMYND11,MCF-7 cells,−2.883
same,logFC ZNF267,MCF-7 cells,−0.6577
same,body weight,[1]; DL-2 and anti-PD1 combination therapy,No change
same,primary tumour volume,"[1]; DL-2 in combination with an anti-PD1 antibody, 10 day treatment period",significantly reduces
same,"lung, liver or spleen weights",[1]; DL-2 in combination with anti-PD1,does not alter
same,body weight,[1]; DL-2 monotherapy,No change
same,"lung, liver or spleen weights",[1]; DL-2 monotherapy,does not alter
same,primary tumour volume,"[1]; DL-2 monotherapy 20 and 30 mg/kg i.p., eight day treatment period",reduces
same,tumour weight,"[1]; DL-2 monotherapy 20 and 30 mg/kg, after 8 days",significantly reduced
"LTFIFRLRKGRMMDVKK (Myristyl-LTFIFRLRKGRMMDVKK) [PDL1-L1, Myristyl- linear peptide, prototype]",Potency (CSC inhibition),CSC,Weak
